Experimental data as given in patent US20220386573A1, “HUMANIZED MOUSE MODEL WITH HUMAN IMMUNE SYSTEM” (Board of Regents, The University of Texas System, priority 2019, published 2022).

Legend:
Type in all cases: in vivo, mouse
[1] = test system: NSGW41 H-Mice; assay: T-dependent antibody response to NP16-CGG immunization, E2 water vs plain water
From the text: To address the antibody response within NSGW41 H-Mice, 16 NSGW41 H-Mice were segregated into two groups of 8 mice each. One group was fed water containing estrogen (NSGW41 H-Mice) and the other plain water (huNSG^W41), each of them were then i.p. injected with NP16-CGG and Alum. The NSGW41 H-Mice were compared to Jackson Labs CD34^+ humanized mice (Jax CD34^+). […] However, the Jax CD34^+ had dramatically lower titers, correlating with reduced human reconstitution. […] (FIG. 3B).
E2 promotes myeloid lineage differentiation and B2 proliferation. Since estrogen administration had such a dynamic impact on the maturation of antibody response within NSGW41 H-Mice, the cellular composition and lymphoid architecture. B1/B2 cell ratios were compared across HIS platforms following immunization with NP-CGG. […] To investigate the formation of lymphoid follicles and germinal center structures, Jax CD34^+, huNSG, and NSGW41 H-Mice spleens were extracted 10 days post-immunization. […] These findings are supported by IHC staining of huCD20, huCD3 and huKI67 showing germinal center structures in NSGW41 H-Mice (FIG. 5D).
(§1) Immunizations. NSGW41 H-Mice were injected intraperitoneally with 4-hydroxy-3-nitrophenylacetlyl (NP) conjugated to CGG (NP-CGG) (average: 16 NP molecule conjugated with one CGG molecule; Biosearch; 100 μg) in PBS (100 μl) with Alum (100 μl), or 2,4-Dinitrophenyl conjugated to CpG (DNP-CpG) (1 DNP molecule conjugated with one CpG molecule; Eurofins Genomics; 25 μg) in PBS (100 μl) without adjuvant. Sera were collected before injection and at specified time points after injection.
(§2) E2 Administration. NSGW41 H-Mice were given drinking water ad libitum containing 1 μM estradiol.
(§3) Detection of antibodies. Titers of IgM, IgD, IgG and IgA from in vitro culture supernatants of stimulated human and H-Mice B cells or titers of circulating and/or NP-binding/DNP-binding IgM, IgG, and IgA were measured using specific ELISAs. IgE were detected by sandwich ELISAs, using plates coated with anti-human IgE mAb. Serial two-fold diluted serum samples in PBS-(0.05%) Tween 20 (PBS-Tween 20) were added to the plates and incubated for 2 h at 23° C. After washing with PBS-Tween 20, biotin-detection antibody was added. After a final washing, IgE antibodies were detected using streptavidin-horseradish peroxidase. Antigen specific antibody titers are expressed as relative units (RU), defined as the dilution factor needed to reach 50% saturation binding, as calculated using GraphPad Prism® software (GraphPad).
(§4) Flow cytometry. Total B cells and PBMCs were subject to flow cytometry for pre-and-post isolation phenotypic analysis using the following surface markers and fluorophores: PEcy7-anti-human-CD19 (clone H1B19; Biolegend), PE-anti-human-CD27 (clone M-T271; Biolegend), BV421-anti-human-IgD (clone HB-7; Biolegend), FITC-anti-human-IgG (clone G18-145; BD Pharmingen), APC-anti-human-IgA (clone IS11-8E10; Miltenyi Biotec) and APC-Cy7-anti-IgM (clone MHM-88, Biolegend) and run on a BD LSRII (BD Biosciences) with the FACSDiva software (BD Biosciences). Data were analyzed using FlowJo software (FlowJo LLC).

[2] = test system: NSGW41 H-Mice; assay: T-independent antibody response to DNP-CpG injection, E2 water vs plain water; conditions: DNP-CpG i.p.
From the text: While NP16-CGG evaluates the T cell-dependent response, the NSGW41 H-Mice immune system's ability to generate a T cell-independent antibody response was investigated. To do so, 16 mice NSGW41 H-Mice were segregated amongst the E2 and plain water groups and injected with Haptenated TLR9 ligand, DNP-CpG IP. […] Thus, NSGW41 H-Mice receiving E2 treatment can mount a mature antibody response to T-dependent and T-independent antigens complete with class-switched, high affinity antibody production and generation of both plasma and memory B cells.
as §1, §2, §3, §4

[3] = test system: NSGW41 H-Mice; assay: E2 administration in drinking water, tolerability; conditions: 1 μM estradiol or above, drinking water ad libitum
Description: as §2

[4] = NP16-CGG and alum i.p., E2-water vs plain water

Structure (SMILES): C[C@]12CC[C@@H]3c4ccc(O)cc4CC[C@H]3[C@@H]1CC[C@@H]2O [E2, estradiol]
- Class-switched IgG, IgG1-4, IgA and IgE production [1, 4]: drastically increased
- NP7-binding IgM and IgG antibody titers [1, 4]: significantly greater
- Number of spleen IgG and IgA class-switched effector, IgD-CD27+ memory B cells and bone marrow CD27+CD38+ plasmablasts/plasma cells [1, 4]: increased number
- IgM serum titers ([1]; NP16-CGG and alum i.p., estrogen water (NSGW41 H-Mice) vs plain water (huNSGW41)): comparable
- Germinal center B cells ([1]; lymph nodes, 10 days post-immunization with NP-CGG, estrogen pre-conditioned vs untreated): two-fold increase
- Class-switched IgG and IgA antibody production [2]: dynamically potentiated
- DNP4-binding IgM, IgG and IgA titers [2]: significantly increased
- Numbers of IgG+ and IgA+ B cells, splenic IgD-CD27+ memory B cells and bone marrow CD27+CD38+ plasmablasts/plasma cells [2]: increased numbers
- Total IgM production [2]: comparable
- Adverse effects of drinking water containing estradiol [3]: no adverse effects
